From patent US9834535B2, “Sulfamate derivative compounds for use in treating or alleviating pain” (Bio-Pharm Solutions Co., Ltd., priority 2013, dated 2017) come the findings set out here.

Some results are limits rather than exact numbers.

Test [1] deals with SNL model. Kind of test: Antiallodynic activity on Chung model (SNL, spinal nerve ligation; von Frey). To be noted: rat, oral, von Frey, 1 h. Format: in vivo, Sprague-Dawley rats. On the procedure:
Male. Sprague-Dawley rats (200-220 g, Orient Bio, Korea) were habituated for 1 week before the experiment and allowed free access to food and water throughout the experimentation. Room temperature and humidity were maintained at 24±2° C. and 50±10%, respectively. Neuropathic surgery (SNL, Spinal nerve ligation) model was clone as described in Kim and Chung (1992). Briefly, animal under gaseous anesthesia with isoflurane a 4:4 flow ratio of NO2. The left lumber spinal nerve L5 and L6 were isolated and tightly ligated with 4-0 silk thread. The wound was treated with a gentamicin antibiotics solution (4 mg/kg, 4 ul/g, bw), and the wound muscle was closed with cat cut chrom 4/0 thread and skin was closed dafilon 4/0 tread. Sham controls were prepared in the same manner as the spinal nerves were exposed, but no ligated L5 and L6 nerves. But, vehicle controls were identical to SNL model, except for administration of vehicles.
Tactile sensitivity (Mechanical allodynia) was evaluated using von Frey monofilaments before and after treatment and animals were used withdrawal threshold value was less than 4 g. One week after surgery, SNL-operated animals (n=4˜6), sham-operated animals (n=4˜10) and vehicle-operated animals (n=4˜13) were tested for tactile sensitivity with von Frey monofilaments 3 trials in each animal. All Animals were placed in a stainless steel mashed chamber and habituated for 30 min in the test box. The tactile sensitivity for ipsilateral hind paw was measured using the up-and-down method (Dixon, 1980) with seven von Frey monofilaments (0.4, 1, 2, 4, 6, 8, and 15 g) to 3 trials. Tactile sensitivity test was followed by Dixon's method (Dixon, 1980). The 50% paw withdrawal threshold for each paw was calculated using the following formula: [Xth] log=[vFr] log+ky where [vFr] is the force of the last von Frey used, k=0.2249 which is the average interval (in log units) between the von Frey monofilaments, and y is a value that depends upon the pattern of withdrawal responses (Dixon, 1980).
All animals were fasted 18 h before the administration of the compounds. The antiallodynic effect of the compounds were evaluated at the various dose (n=5˜6), orally administrated in a volume of 5 ul/g, bw in a vehicle of 30% (v/v) PEG 400 or 20% (v/v) Tween 80 or Saline. […]
The relative values compared to the sham group (% control) were calculated and shown in Table 5, which show an antiallodynic effect of the test compounds on SNL model in rats.

In test [2] the test system is Post operation-induced pain model. Kind of test: Antiallodynic activity on post operative-induced pain model (von Frey). It is filed as in vivo, Sprague-Dawley rats. To be noted: ip; rat, intraperitoneal, von Frey, 0.5 h. Here is the method:
Male Sprague-Dawley rats′(Orient Bio, Korea), 300˜320 g, total of 201 rats were used (details in Table 7). Rats were habituated at least 3 clays before surgery and free access to food and water (room temperature and humidity were maintained at 24±2° C. and 50±10%, respectively). The process of performing the post-operation model's surgery was adapted from Brennan et al (1996). At first, rats with allodynia (threshold valueless than 8 g) were excluded in Pre-von Frey Test. During the post-operation surgery, rats were anesthetized under gaseous anesthesia with 2% isoflurane. Rats were laid face down on a plate fixed at 37° C. to prevent against hypothermia. The ipsilateral plantar aspect (left side) of the hind paw was prepared in a sterile manner with a 10% povidone-iodine solution. […]
For efficacy measure, the threshold value of group C was assigned 100% efficacy, and the percentage of the threshold values of group A compared to group C (for each different dose level) were calculated as the efficacies. Base on these efficacy values, ED50 was calculated using log fitting. […]
For pain threshold test, all animals were placed in a stainless steel meshed chamber and habituated for 30 min in the test box. The tactile sensitivity of the ipsilateral hind paw was measured using the up-and-down method (Dixon, 1980) with seven von Frey monofilaments (0.4, 1, 2, 4, 6, 8, and 15 g) using 3 trials. […]

The subject of test [3] is tail-flick withdrawal latency. Kind of test: Tail-flick test. To be noted: mouse, oral. It is filed as in vivo, ICR mice. On the procedure:
To examine the pain relief effect of the sulfamate compounds, a tail-flick test was conducted in general pain animal model referring to Current Protocols in Neuroscience; Behavioral Neuroscience Unit 8.9.
ICR mice (male, 25-30 g; Orient Bio, Korea) were habituated before test in test room for 1 hour. Animals were fasted 2 hr before administration of compounds. Each of Compound was orally administered at the close of 150 mg/kg, 10 ul/g, bw (n=7˜10/group). All compounds were dissolved in a vehicle of 30% (v/v) PEG 400 or 20% (v/v) Tween 80. The control group was treated the vehicle without compounds.
After the administration of compounds, the mice tail were put on a tail-flick analgesia meter. To avoid tissue damage, maximal exposure time to pain stimuli was restricted to 15 s. The withdrawal latency was measured as the time to the point when each mouse response to the stimulus. The relative values compared to the control (% control) were calculated.
The relative values compared to the sham were calculated and shown in Table 12, which show effect of the compound of examples on tail-flick test in […].
A general note: In hot-plate and tail-flick tests a longer latency is read as antinociception.

A word on the ED50: it is the dose that gives a 50% effect, or the effect in half of the subjects. For `CC1(C)O[C@@H](COS(N)(=O)=O)[C@H](c2ccccc2Cl)O1` [Example 2, ((4S,5S)-5-(2-chlorophenyl)-2,2-dimethyl-1,3-dioxolan-4-yl)methyl sulfamate], the ED50 in test [1] was 18.2 mg/kg; in test [2] it was 1.8 mg/kg. In test [3], this compound gave a tail-flick test: dose of over 200 mg/kg.
